PubChem BioAssay AID248 (DTP/NCI, 2004)
Values joined by “and” are separate entries in the source; they are usually repeats but may differ in a detail not shown here. Equal entries are not always repeated. Inconclusive results and toxic doses are left out. No stated cut-off is given here; in the data, active means T/C of 150% or more; inactive means T/C below 125%.

Test system: L1210 leukemia ip in BDF1 mice, survival T/C
Assay: NCI In Vivo Anticancer Drug Screen. Data for tumor model L1210 Leukemia (intraperitoneal) in B6D2F1 (BDF1) mice
Details: endpoint: mean survival time, higher = longer survival
Summary of the method: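 Each compound was tested against a transplantable tumor grown in mice. The endpoint was survival, with treated animals benchmarked against vehicle controls as a simple ratio.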

[1] = dose: 100.0 mg/kg/injection, schedule: Q04DX003 (ip), vehicle: Klucel (hydroxypropylcellulose) (HPC)
[2] = dose: 200.0 mg/kg/injection, schedule: Q04DX003 (ip), vehicle: Klucel (hydroxypropylcellulose) (HPC)
[3] = dose: 400.0 mg/kg/injection, schedule: Q04DX003 (ip), vehicle: Klucel (hydroxypropylcellulose) (HPC)
[4] = dose: 100.0 mg/kg/injection, schedule: Q01DX009 (ip), vehicle: saline
[5] = dose: 100.0 mg/kg/injection, schedule: Q04DX003 (ip), vehicle: saline with Tween-80
[6] = dose: 100.0 mg/kg/injection, schedule: Q04DX003 (ip), vehicle: saline
[7] = dose: 200.0 mg/kg/injection, schedule: Q04DX003 (ip), vehicle: saline with Tween-80
[8] = dose: 200.0 mg/kg/injection, schedule: Q04DX003 (ip), vehicle: saline
[9] = dose: 100.0 mg/kg/injection, schedule: Q01DX001 (ip), vehicle: saline
[10] = dose: 200.0 mg/kg/injection, schedule: Q01DX001 (ip), vehicle: saline
[11] = dose: 400.0 mg/kg/injection, schedule: Q01DX001 (ip), vehicle: saline
[12] = dose: 400.0 mg/kg/injection, schedule: Q04DX003 (ip), vehicle: saline with Tween-80
[13] = dose: 100.0 mg/kg/injection, schedule: Q01DX009 (ip), vehicle: Klucel (hydroxypropylcellulose) (HPC)
[14] = dose: 200.0 mg/kg/injection, schedule: Q01DX009 (ip), vehicle: Klucel (hydroxypropylcellulose) (HPC)
[15] = dose: 400.0 mg/kg/injection, schedule: Q01DX009 (ip), vehicle: Klucel (hydroxypropylcellulose) (HPC)
[16] = dose: 100.0 mg/kg/injection, schedule: Q01DX009 (ip), vehicle: saline with Tween-80
[17] = dose: 200.0 mg/kg/injection, schedule: Q01DX009 (ip), vehicle: saline with Tween-80

Measured: T/C

O=C(Nc1cc([N+](=O)[O-])ccc1F)Nc1ccccc1C(F)(F)F
inactive: [1] 96 % of control | [2] 94 % of control | [3] 91 % of control

CN1CCN(C(=O)Nc2cccc(Cl)c2Cl)CC1
inactive: dose: 25.0 mg/kg/injection, schedule: Q01DX009 (ip), vehicle: saline 92 % of control | dose: 50.0 mg/kg/injection, schedule: Q01DX009 (ip), vehicle: saline 87 % of control | [4] 97 % of control and 102 % of control

[CH3][Sb]1([Cl])[CH2]CC[CH2]1
inactive: [5] 103 % of control | [6] 101 % of control | [7] 107 % of control | [8] 108 % of control

O=C(O)C1CCCCN1O (stereo not given)
inactive: [9] 102 % of control | [10] 104 % of control | [11] 104 % of control

O=Cc1ccc(OCCBr)cc1
inactive: [5] 98 % of control | [7] 97 % of control | [12] 103 % of control

OCC1(c2ccccc2)CCN(Cc2ccccc2)CC1
inactive: [13] 91 % of control | [1] 104 % of control | [14] 96 % of control | [2] 101 % of control | [15] 91 % of control | [3] 97 % of control

COc1cc([N+](=O)[O-])ccc1NC(=O)N(Cc1ccccc1)c1ccccc1
inactive: [13] 98 % of control | [14] 93 % of control | [15] 91 % of control

CC(=O)OC1C(OC(C)=O)C(OS(=O)(=O)c2ccc(C)cc2)C(OC(C)=O)C(OS(=O)(=O)c2ccc(C)cc2)C1OC(C)=O (stereo not given)
inactive: [5] 97 % of control | [7] 92 % of control | [12] 95 % of control

CNC1(C(N)=O)CCN(Cc2ccccc2)CC1
inactive: dose: 50.0 mg/kg/injection, schedule: Q01DX009 (ip), vehicle: saline with Tween-80 99 % of control | [16] 94 % of control | [5] 95 % of control | [17] 90 % of control | [7] 101 % of control

CCC1(C)CC(=O)NC(=O)C1
inactive: dose: 0.9 mg/kg/injection, schedule: Q01DX009 (ip), vehicle: saline 98 % of control | dose: 1.87 mg/kg/injection, schedule: Q01DX009 (ip), vehicle: saline 108 % of control | dose: 3.75 mg/kg/injection, schedule: Q01DX009 (ip), vehicle: saline 104 % of control | dose: 3.75 mg/kg/injection, schedule: Q04DX003 (ip), vehicle: saline 106 % of control | dose: 5.0 mg/kg/injection, schedule: Q04DX003 (ip), vehicle: saline with Tween-80 101 % of control | dose: 7.5 mg/kg/injection, schedule: Q01DX009 (ip), vehicle: saline 106 % of control | dose: 7.5 mg/kg/injection, schedule: Q04DX003 (ip), vehicle: saline 92 % of control | dose: 10.0 mg/kg/injection, schedule: Q04DX003 (ip), vehicle: saline with Tween-80 97 % of control | dose: 15.0 mg/kg/injection, schedule: Q01DX009 (ip), vehicle: saline 100 % of control | dose: 15.0 mg/kg/injection, schedule: Q04DX003 (ip), vehicle: saline 95 % of control

CSc1cccc(NC(C)=O)c1
inactive: [4] 97 % of control | [6] 93 % of control | dose: 200.0 mg/kg/injection, schedule: Q01DX009 (ip), vehicle: saline 113 % of control | [8] 97 % of control | dose: 400.0 mg/kg/injection, schedule: Q01DX009 (ip), vehicle: saline 104 % of control | dose: 400.0 mg/kg/injection, schedule: Q04DX003 (ip), vehicle: saline 101 % of control

C[C@H]1C[C@@H]2[C@H]([C@@H](O)C[C@@]3(C)[C@H]2CC[C@]3(O)C(=O)CF)[C@@]2(C)C=CC(=O)C=C12
inactive: dose: 62.0 mg/kg/injection, schedule: Q01DX015 (sc), vehicle: steriod suspending solution 97 % of control | dose: 100.0 mg/kg/injection, schedule: Q04DX003 (sc), vehicle: Klucel (hydroxypropylcellulose) (HPC) 101 % of control | dose: 125.0 mg/kg/injection, schedule: Q01DX015 (sc), vehicle: steriod suspending solution 94 % of control | dose: 200.0 mg/kg/injection, schedule: Q04DX003 (sc), vehicle: Klucel (hydroxypropylcellulose) (HPC) 102 % of control | dose: 250.0 mg/kg/injection, schedule: Q01DX015 (sc), vehicle: steriod suspending solution 102 % of control | dose: 400.0 mg/kg/injection, schedule: Q04DX003 (sc), vehicle: Klucel (hydroxypropylcellulose) (HPC) 115 % of control | dose: 500.0 mg/kg/injection, schedule: Q01DX015 (sc), vehicle: steriod suspending solution 102 % of control

OC(OCCCCCCOC(O)C(Cl)(Cl)Cl)C(Cl)(Cl)Cl (stereo not given)
inactive: [16] 93 % of control | [5] 98 % of control | [17] 98 % of control | [7] 104 % of control | dose: 400.0 mg/kg/injection, schedule: Q01DX009 (ip), vehicle: saline with Tween-80 106 % of control | [12] 98 % of control

Cc1cccc(Cl)c1NC(=S)Nc1ccccc1
inactive: dose: 100.0 mg/kg/injection, schedule: Q04DX002 (ip), vehicle: Klucel (hydroxypropylcellulose) (HPC) 101 % of control | dose: 200.0 mg/kg/injection, schedule: Q04DX002 (ip), vehicle: Klucel (hydroxypropylcellulose) (HPC) 94 % of control | dose: 400.0 mg/kg/injection, schedule: Q04DX002 (ip), vehicle: Klucel (hydroxypropylcellulose) (HPC) 97 % of control

C1CCC(=C(C2CCCC2)C2CCCC2)C1
inactive: dose: 75.0 mg/kg/injection, schedule: Q04DX002 (ip), vehicle: saline with Tween-80 105 % of control | dose: 150.0 mg/kg/injection, schedule: Q04DX002 (ip), vehicle: saline with Tween-80 99 % of control | dose: 300.0 mg/kg/injection, schedule: Q04DX002 (ip), vehicle: saline with Tween-80 99 % of control

CC(=O)Nc1ccc(S(=O)(=O)C(Cl)c2ccccc2)cc1 (stereo not given)
inactive: [9] 103 % of control | [10] 103 % of control | [11] 98 % of control

NC(N)=N/N=C/c1ccc([N+](=O)[O-])cc1
inactive: dose: 15.0 mg/kg/injection, schedule: Q01DX Z (ip), vehicle: saline 95 % of control | dose: 30.0 mg/kg/injection, schedule: Q01DX Z (ip), vehicle: saline 95 % of control | dose: 30.0 mg/kg/injection, schedule: Q01DX Z (oral), vehicle: other 104 % of control | dose: 60.0 mg/kg/injection, schedule: Q01DX Z (ip), vehicle: saline 90 % of control | dose: 60.0 mg/kg/injection, schedule: Q01DX Z (oral), vehicle: other 100 % of control | dose: 120.0 mg/kg/injection, schedule: Q01DX Z (oral), vehicle: other 88 % of control

CC(C)=CCC/C(C)=C/C(=O)O
inactive: [9] 100 % of control | [10] 93 % of control | [11] 93 % of control
